According to US4931444A, “5-lipoxygenase inhibiting 4-(4-phenyl-1-piperazinyl)phenols” (Janssen Pharmaceutica N.V., priority 1989, dated 1990):
Structures can show the parent of a compound that is named as a salt.

What was measured:
[1] = tested on: Dextran-induced edema formation in the ears of mice; experiment: Inhibition of Dextran-induced edema formation in the ears of mice; assay type: in vivo, male Swiss mice; details: Column B, at 10 mg/kg body weight, 1 h before dextran; for inhibition of Dextran-induced blueing of the ears of mice, % inhibition: oral; for inhibition in vivo at 10 mg/kg: Mus musculus, po, read-out: inhibition of Dextran-induced blueing of the ears of mice, % inhibition
Text: Inhibition of Dextran-induced edema formation in the ears of mice.
Intravenous injection of Dextran T500® (Pharmacia) and pontamine sky-blue dye into mice results in increased vascular permeability and edema formation, characterized by an intense blueing of the ears. Determination of the amount of extravasated dye is presumed to yield a quantitative measure of the 5-lipoxygenase inhibiting activity of the test compounds (Drug. Dev. Res. 8, 213-218, 1986). Unfasted male Swiss mice weighing 24-26 g were used in the experiments which were performed between 13.00 pm and 17.00 pm at an ambient temperature of 22±1° C. The mice were treated orally with a test compound of formula (I) dissolved in a volume of […] of either polyethyleneglycol (PEG 200) or hydroxypropyl cyclodextrine at doses varying between 1.25 and 40 mg per kg bodyweight. In control experiments the mice were administered an identical amount of solvent alone. One hour after treatment there was injected intravenously an isotonic saline solution containing 60 mg/ml Dextran T500® and 13 mg/ml pontamine sky-blue dye in a volume of 0.1 ml per 10 g bodyweight. One hour and forty-five minutes later the animals were sacrificed by ether and their ears were removed. Extraction and quantification of the extravasated dye were performed as described (Drug Dev. Res. 8, 213-218, 1986). The calculated percentage of inhibition of ear blueing upon administration of a compound of formula (I) at a dose of 10 mg/kg bodyweight is shown in the second column of table 12.

[2] = biological target: T1, 5-lipoxygenase (Rattus norvegicus, UniProt P12527); experiment: Arachidonate 5-lipoxygenase inhibition in Rat Basophilic Leukemia Cells Supernatant; assay type: biochemical; design: dose or concentration left out as unconfirmed; details: Column A, 5-HPETE and LTB4 formation; for inhibition: read-out: 5-lipoxygenase inhibition in RBL cells supernatant, % inhibition
T1 construct: The supernatant, aliquoted and stored at -70° C., was used as the source of 5-lipoxygenase activity; endogenous in cells; host or cells: Rat basophilic leukemia (RBL) cells, 10,000×g supernatant of the sonicate (crude, not purified)
T1 sequence (P12527 1-673): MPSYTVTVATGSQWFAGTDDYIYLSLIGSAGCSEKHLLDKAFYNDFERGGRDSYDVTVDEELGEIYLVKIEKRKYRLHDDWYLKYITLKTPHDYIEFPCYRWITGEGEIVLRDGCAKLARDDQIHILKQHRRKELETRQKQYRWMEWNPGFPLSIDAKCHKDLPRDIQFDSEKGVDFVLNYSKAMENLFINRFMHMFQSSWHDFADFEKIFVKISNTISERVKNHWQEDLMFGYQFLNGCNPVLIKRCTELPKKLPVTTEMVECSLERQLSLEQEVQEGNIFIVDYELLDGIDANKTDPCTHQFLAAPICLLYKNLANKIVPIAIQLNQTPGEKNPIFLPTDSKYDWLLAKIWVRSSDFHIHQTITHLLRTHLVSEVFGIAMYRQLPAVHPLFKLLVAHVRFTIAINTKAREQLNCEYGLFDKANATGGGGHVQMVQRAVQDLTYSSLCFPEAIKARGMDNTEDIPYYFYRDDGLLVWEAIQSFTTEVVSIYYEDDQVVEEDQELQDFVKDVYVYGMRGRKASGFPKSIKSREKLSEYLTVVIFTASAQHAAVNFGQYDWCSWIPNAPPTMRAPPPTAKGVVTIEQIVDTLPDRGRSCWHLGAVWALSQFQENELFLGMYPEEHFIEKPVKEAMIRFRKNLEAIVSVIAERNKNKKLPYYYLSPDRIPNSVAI

SMILES | inhibition [2] [%] | inhibition in vivo at 10 mg/kg [1] [%] | other results
CC(C(O)c1ccc(Br)cc1)n1ncn(-c2ccc(N3CCN(c4ccc(O)cc4)CC3)cc2)c1=O (stereo not shown) [Compound 7.68] |  |  | inhibition of Dextran-induced blueing of the ears of mice, % inhibition ([1]; 10 mg/kg): 81%
Cc1nn(C(C)C(O)c2ccc(Br)cc2)c(=O)n1-c1ccc(N2CCN(c3ccc(O)cc3)CC2)cc1 (stereo not shown) [Compound 7.70, 2-[2-(4-bromophenyl)-2-hydroxy-1-methylethyl]-2,4-dihydro-4-[4-[4-(4-hydroxyphenyl)-1-piperazinyl]phenyl]-5-methyl-3H-1,2,4-triazol-3-one] |  | 85 | 
CC(C)N1C(=O)N(c2ccc(N3CCN(c4ccc(O)cc4)CC3)cc2)C(C)(C)C1=O [Compound 6.09] | 84 |  | 
CN1C(=S)N(c2ccc(N3CCN(c4ccc(O)cc4)CC3)cc2)C(=O)C1(C)C [Compound 5.12] | 81 | 88 | 
CCC(C(=O)c1ccc(Cl)cc1)n1ncn(-c2ccc(N3CCN(c4ccc(O)cc4)CC3)cc2)c1=O (stereo not shown) [Compound 7.41] |  | 82 | 
CC(C(O)c1ccc(Cl)cc1Cl)n1ncn(-c2ccc(N3CCN(c4ccc(O)cc4)CC3)cc2)c1=O (stereo not shown) [Compound 7.23] |  |  | 5-lipoxygenase inhibition in RBL cells supernatant, % inhibition [2]: 91%; inhibition of Dextran-induced blueing of the ears of mice, % inhibition [1]: 94%
CCCN1C(=O)N(c2ccc(N3CCN(c4ccc(O)cc4)CC3)cc2)C(C)(C)C1=O [Compound 6.08] | 75 | 89 | 
CC(=O)C(C)N1C(=O)N(c2ccc(N3CCN(c4ccc(O)cc4)CC3)cc2)C(=O)C1(C)C (stereo not shown) [Compound 5.08] | 45 | 76 | 
CCCCN1C(=O)N(c2ccc(N3CCN(c4ccc(O)cc4)CC3)cc2)C(C)(C)C1=O [Compound 6.10] | 90 | 93 | 
CC12CCCN1C(=O)N(c1ccc(N3CCN(c4ccc(O)cc4)CC3)cc1)C2=O (stereo not shown) [Compound 5.10] | 69 | 75 | 
CCN(C1=NC(C(C)C)CS1)c1ccc(N2CCN(c3ccc(O)cc3)CC2)cc1 (stereo not shown) [Compound 3.14] |  | 74 | 
CCC(C)N1C(=O)N(c2ccc(N3CCN(c4ccc(O)cc4)CC3)cc2)C(C)(C)C1=O (stereo not shown) [Compound 6.12] | 90 | 53 | 
O=[N+]([O-])c1cc(F)ccc1N1CCN(c2ccc(O)cc2)CC1 [Compound 1.16, 4-[4-(4-fluoro-2-nitrophenyl)-1-piperazinyl]phenol monohydrochloride] | 94 |  | 
CCCCN1C(=O)N(c2ccc(N3CCN(c4ccc(O)cc4)CC3)cc2)C(=O)C1C (stereo not shown) [Compound 5.03] | 79 | 72 | 
CCCn1c(=O)n(-c2ccc(N3CCN(c4ccc(O)cc4)CC3)cc2)c(=O)n(C(C)C(=O)c2ccc(Br)cc2)c1=O (stereo not shown) [Compound 9.07] |  | 83 | 
CCCCN1CCCSC1=Nc1ccc(N2CCN(c3ccc(O)cc3)CC2)cc1 [Compound 2.01] | 90 | 71 | 
CCN1C(=S)N(c2ccc(N3CCN(c4ccc(O)cc4)CC3)cc2)C(=O)C1(C)C [Compound 5.13] | 71 | 15 | 
Cn1c(=O)n(C)c(=O)n(-c2ccc(N3CCN(c4ccc(O)cc4)CC3)cc2)c1=O [Compound 9.05] |  | 83 | 
CCC(C(O)c1ccccc1)n1ncn(-c2ccc(N3CCN(c4ccc(O)cc4)CC3)cc2)c1=O (stereo not shown) [Compound 7.69] |  | 85 | 
CCN1CCN(c2ccc(N3CCN(c4ccc(O)cc4)CC3)cc2)C1=O [Compound 4.02] | 84 |  | 
CCCCN1C(=O)N(c2ccc(N3CCN(c4ccc(O)cc4)CC3)cc2)CC1(C)C [Compound 4.13] | 95 |  | 

Now from value to compound, other results behind:

inhibition [2] [%] | SMILES | inhibition in vivo at 10 mg/kg [1] [%] | other results
80 | CCCCn1c(=O)cnn(-c2ccc(N3CCN(c4ccc(O)cc4)CC3)cc2)c1=O [Compound 10.05, 4-butyl-2-[4-[4-(4-hydroxyphenyl)-1-piperazinyl]phenyl]-1,2,4-triazine-3,5(2H,4H)-dione] |  | 
52 | CCC(C)n1nc(C)n(-c2ccc(N3CCN(c4cc(C)c(O)c(C)c4)CC3)cc2)c1=O (stereo not shown) [Compound 7.50, 2,4-dihydro-4-[4-[4-(4-hydroxy-3,5-dimethylphenyl)-1-piperazinyl]phenyl]-5-methyl-2-(1-methylpropyl)-3H-1,2,4-triazol-3-one] | 88 | 
80 | CCC(C)n1nc(C)n(-c2ccc(N3CCN(c4ccc(O)cc4)CC3)cc2)c1=O (stereo not shown) [Compound 7.33, 2,4-dihydro-4-[4-[4-(4-hydroxyphenyl)-1-piperazinyl]phenyl]-5-methyl-2-(1-methylpropyl)-3H-1,2,4-triazol-3-one] | 87 | 
100 | CCC(C)n1nc(C)n(-c2ccc(N3CCN(c4ccc(O)c(C)c4)CC3)cc2)c1=O (stereo not shown) [Compound 7.38] | 88 | 
87 | Cc1nn(CC(C)C)c(=O)n1-c1ccc(N2CCN(c3ccc(O)cc3)CC2)cc1 [Compound 7.34] | 66 | 
100 | CCC(C(=O)c1ccc(Br)cc1)n1ncn(-c2ccc(N3CCN(c4ccc(O)cc4)CC3)cc2)c1=O (stereo not shown) [Compound 7.36] | 93 | 
97 | CCC(C)n1ncn(-c2ccc(N3CCN(c4ccc(O)cc4)CC3)c(Br)c2)c1=O (stereo not shown) [Compound 7.21] |  | 
67 | O=C1CCCCC1n1ncn(-c2ccc(N3CCN(c4ccc(O)cc4)CC3)cc2)c1=O (stereo not shown) [Compound 7.18] | 87 | 
90 | Cc1nn(C(C)C(=O)c2ccc(Br)cc2)c(=O)n1-c1ccc(N2CCN(c3ccc(O)cc3)CC2)cc1 (stereo not shown) [Compound 7.57, 2-[2-(4-bromophenyl)-1-methyl-2-oxoethyl]-2,4-dihydro-4-[4-[4-(4-hydroxyphenyl)-1-piperazinyl]phenyl]-5-methyl-3H-1,2,4-triazol-3-one] | 82 | 
90 | CCCn1cnn(-c2ccc(N3CCN(c4ccc(O)cc4)CC3)cc2)c1=O [Compound 8.05] |  | 
100 | CC(C(=O)c1cccc(Cl)c1)n1ncn(-c2ccc(N3CCN(c4ccc(O)cc4)CC3)cc2)c1=O (stereo not shown) [Compound 7.37] | 73 | 
51 | CC(C(=O)c1ccc(Cl)cc1)n1ncn(-c2ccc(N3CCN(c4ccc(O)cc4)CC3)cc2)c1=O (stereo not shown) [Compound 7.15] | 97 | 
79 | Cc1cc(N2CCN(c3ccc(-n4c(C)nn(C(C)C(O)c5ccc(Br)cc5)c4=O)cc3)CC2)cc(C)c1O (stereo not shown) [Compound 7.54, 2-[2-(4-bromophenyl)-2-hydroxy-1-methylethyl]-2,4-dihydro-4-[4-[4-(4-hydroxy-3,5-dimethylphenyl)-1-piperazinyl]phenyl]-5-methyl-3H-1,2,4-triazol-3-one] | 76 | 
93 | Cc1cc(N2CCN(c3ccc(-n4c(C)nn(C(C)C(=O)c5ccc(Br)cc5)c4=O)cc3)CC2)cc(C)c1O (stereo not shown) [Compound 7.51, 2-[2-(4-bromophenyl)-1-methyl-2-oxoethyl]-2,4-dihydro-4-[4-[4-(4-hydroxy-3,5-dimethylphenyl)-1-piperazinyl]phenyl]-5-methyl-3H-1,2,4-triazol-3-one] | 83 | 
100 | CC(C(O)c1ccc(Cl)cc1Cl)n1ncn(-c2ccc(N3CCN(c4ccc(O)cc4)CC3)cc2)c1=O (stereo not shown) [Compound 7.22] | 94 | 
81 | O=c1n(-c2ccc(N3CCN(c4ccc(O)cc4)CC3)cc2)cnn1CC(F)(F)F [Compound 7.11] | 81 | 
97 | CCC(C)n1ncn(-c2ccc(N3CCN(c4ccc(O)cc4)CC3)cc2)c1=O (stereo not shown) [Compound 7.06] |  | 
